Reference: PubChem BioAssay (NCI)
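Exposure lasted 48 hours, with cells grown in 96-well plates and compounds tested at five concentrations. Here, GI50 denotes the concentration required for 50% inhibition of growth. TGI: total growth inhibition.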

Key:
Experiment in all cases: NCI-60 cell line screen, 48 h
[1] = tested on: SW-620 colon
[2] = tested on: SF-295 CNS
[3] = tested on: 786-0 renal
[4] = tested on: A498 renal
[5] = tested on: UACC-257 melanoma
[6] = tested on: HOP-92 NSCLC
[7] = tested on: LOX IMVI melanoma
[8] = tested on: HCT-116 colon
[9] = tested on: MCF7 breast
[10] = tested on: SN12C renal
[11] = tested on: OVCAR-3 ovarian
[12] = tested on: A549 NSCLC
[13] = tested on: U251 CNS
[14] = tested on: COLO 205 colon
[15] = tested on: HL-60(TB) leukemia
[16] = tested on: OVCAR-5 ovarian
[17] = tested on: UACC-62 melanoma
[18] = tested on: SK-MEL-5 melanoma
[19] = tested on: MALME-3M melanoma
[20] = tested on: ACHN renal
[21] = tested on: HCT-15 colon
[22] = tested on: HS 578T breast
[23] = tested on: HOP-62 NSCLC
[24] = tested on: CAKI-1 renal
[25] = tested on: SNB-75 CNS
[26] = tested on: HT29 colon
[27] = tested on: NCI-H226 lung
[28] = tested on: NCI/ADR-RES ovarian
[29] = tested on: NCI-H522 lung
[30] = tested on: EKVX NSCLC
[31] = tested on: BT-549 breast
[32] = tested on: RPMI-8226 leukemia
[33] = tested on: SK-OV-3 ovarian
[34] = tested on: NCI-H460 lung
[35] = tested on: M14 melanoma
[36] = tested on: OVCAR-8 ovarian
[37] = tested on: SK-MEL-28 melanoma
[38] = tested on: SF-539 CNS
[39] = tested on: UO-31 renal
[40] = tested on: SR leukemia
[41] = tested on: K-562 leukemia
[42] = tested on: NCI-H23 lung
[43] = tested on: MDA-N
[44] = tested on: MOLT-4 leukemia
[45] = tested on: MDA-MB-231 breast
[46] = tested on: OVCAR-4 ovarian
[47] = tested on: IGROV1 ovarian
[48] = tested on: DU-145 prostate
[49] = tested on: SNB-19 CNS
[50] = tested on: PC-3 prostate
[51] = tested on: MDA-MB-435
[52] = tested on: CCRF-CEM leukemia
[53] = tested on: SF-268 CNS

SMILES: COc1ccc2nc3cc([N+](=O)[O-])ccc3c(NCCCN(C)C)c2c1
- GI50 [1]: 67 nM
- TGI [1]: 1390 nM
- GI50 [2]: 350 nM
- TGI [2]: 2390 nM
- GI50 [3]: 174 nM
- TGI [3]: 1280 nM
- GI50 [4]: 1870 nM
- TGI [4]: 5720 nM
- GI50 [5]: 1710 nM
- TGI [5]: 4410 nM
- GI50 [6]: 149 nM
- TGI [6]: 651 nM
- GI50 [7]: 249 nM
- TGI [7]: 1080 nM
- GI50 [8]: 36 nM
- TGI [8]: 1250 nM
- GI50 [9]: 30.4 nM
- TGI [9]: 204 nM
- GI50 [10]: 111 nM
- TGI [10]: 768 nM
- GI50 [11]: 594 nM
- TGI [11]: 7860 nM
- GI50 [12]: 278 nM
- TGI [12]: 10100 nM
- GI50 [13]: 44.1 nM
- TGI [13]: 375 nM
- GI50 [14]: 221 nM
- TGI [14]: 2170 nM
- GI50 [15]: 95.3 nM
- GI50 [16]: 768 nM
- TGI [16]: 4510 nM
- GI50 [17]: 384 nM
- TGI [17]: 1640 nM
- GI50 [18]: 187 nM
- TGI [18]: 832 nM
- GI50 [19]: 287 nM
- TGI [19]: 878 nM
- GI50 [20]: 418 nM
- TGI [20]: 3090 nM
- GI50 [21]: 3460 nM
- GI50 [22]: 372 nM
- TGI [22]: 4760 nM
- GI50 [23]: 31.5 nM
- TGI [23]: 202 nM
- GI50 [24]: 1240 nM
- TGI [24]: 3830 nM
- GI50 [25]: 310 nM
- TGI [25]: 1530 nM
- GI50 [26]: 39.7 nM
- TGI [26]: 1120 nM
- GI50 [27]: 251 nM
- TGI [27]: 2420 nM
- GI50 [28]: 2460 nM
- TGI [28]: 14200 nM
- GI50 [29]: 19.9 nM
- TGI [29]: 59.7 nM
- GI50 [30]: 2250 nM
- TGI [30]: 7910 nM
- GI50 [31]: 2650 nM
- TGI [31]: 5260 nM
- GI50 [32]: 38 nM
- TGI [32]: 437 nM
- GI50 [33]: 231 nM
- TGI [33]: 3130 nM
- GI50 [34]: 40.9 nM
- TGI [34]: 1500 nM
- GI50 [35]: 176 nM
- TGI [35]: 412 nM
- GI50 [36]: 89.5 nM
- TGI [36]: 1590 nM
- GI50 [37]: 504 nM
- TGI [37]: 2870 nM
- GI50 [38]: 520 nM
- TGI [38]: 3190 nM
- GI50 [39]: 1630 nM
- TGI [39]: 6100 nM
- GI50 [40]: 79.4 nM
- GI50 [41]: 36.1 nM
- TGI [41]: 183 nM
- GI50 [42]: 170 nM
- TGI [42]: 737 nM
- GI50 [43]: 491 nM
- TGI [43]: 2000 nM
- GI50 [44]: 43.2 nM
- TGI [44]: 680 nM
- GI50 [45]: 394 nM
- TGI [45]: 3450 nM
- GI50 [46]: 95.9 nM
- TGI [46]: 539 nM
- GI50 [47]: 363 nM
- TGI [47]: 3590 nM
- GI50 [48]: 175 nM
- TGI [48]: 11900 nM
- GI50 [49]: 299 nM
- TGI [49]: 2610 nM
- TGI [50]: 1550 nM
- GI50 [51]: 247 nM
- TGI [51]: 1000 nM
- GI50 [52]: 557 nM
- TGI [52]: 4310 nM
- GI50 [53]: 295 nM
- TGI [53]: 1740 nM
